According to patent US7524865B2, “Methods and compositions for treating an ocular neovascular disease” (priority 1993, dated 2009):
Like-named read-outs stand apart in the source and are kept apart here.

What was measured:
[1] = system: βFGF induced corneal neovascularization; settings: for median inhibition of the area of vascularized cornea: day 8, percent of median control
Procedure: Pellets for implantation into rabbit corneas were made by mixing 110 μl of saline containing 12 μg of recombinant βFGF (Takeda Pharmaceuticals-Japan) with 40 mg of sucralfate (Bukh Meditec-Denmark); this suspension was added to 80 μl of 12% hydron (Interferon Sciences) in ethanol. 10 μl aliquots of this mixture was then pipetted onto teflon pegs and allowed to dry producing approximately 17 pellets. A pellet was implanted into corneal micropockets of each eye of an anesthetized female New Zealand white rabbit, 2 mm from the limbus followed by topical application of erythromycin ointment onto the surface of the cornea. The animals were fed daily from 2 days post-implantation by gastric lavage with either drug suspended in 0.5% carboxymethyl cellulose or 0.5% carboxymethyl cellulose alone. Thalidomide was purchased from Andrulus Pharmaceutical (Maryland) and the EM-12 and Supidimide were kindly provided by Grunenthal GMBH (Germany). The animals were examined with a slit lamp every other day in a masked manner by the same corneal specialist. The area of corneal neovascularization was determined by measuring with a reticule the vessel length (L) from the limbus and the number of clock hours (C) of limbus involved. A formula was used to determine the area of a circular band segment: C/12*3.1416 [r^2−(r−L)^2] where r=6 mm the measured radius of the rabbit cornea.
Pellets containing βFGF and sucralfate were implanted into micropockets of both corneas of rabbits according to Example II. […] The area of corneal neovascularization was measured from day 4 through day 12. Day 8 measurements were used for comparison between groups. […] Statistical analysis was performed with ANOVA with ranked data to account for interexperimental variation and to guard against a non-normal distribution of data (i.e. outliers) by utilizing a nonparametric method.

[2] = system: B16-BL6 melanoma cells; assay: B16-BL6 melanoma pulmonary metastasis model; type: in vivo, C57B1/6 mice
Procedure: (§1) B16-BL6 melanoma cells (5×10^4) were injected intravenously into the tail veins of C57B1/6 mice. Three days later, the mice were treated intraperitoneally with increasing doses of thalidomide or 2-phthalimidinoglutaric acid (EM-138) on alternate days. Fourteen days after tumor cell inoculation, the lungs were removed from the mice and the surface pulmonary metastases were counted.
as §1, with “orally” for “intraperitoneally”
B16-BL6 melanoma cells (5×10^4) were injected intravenously into the tail veins of C57B1/6 mice. Three days later, the mice received a gavage treatment with 0.8 mmol/kg of 2-phthalimidinoglutaric acid (EM-138). The mice received either a single treatment, five treatments on alternate days, or one treatement every day for eleven days. Fourteen days after tumor cell inoculation, the lungs were removed from the mice and the surface pulmonary metastases were counted.
B16-BL6 melanoma cells (5×10^4) were injected intravenously into the tail veins of C57B1/6 mice. Three days later, treatment began. The mice received intraperitoneal injections of thalidomide (0.4 mmol/kg), thalidomide (3.0 mmol/kg) or 2-phthalimidinoglutaric acid (EM-138) (0.4 mmol/kg) every day. Fourteen days after tumor cell inoculation, the lungs were removed from the mice and the surface pulmonary metastases were counted.

[3] = system: Crohn's disease; assay: Treatment of a patient with Crohn's disease; type: in vivo, human; settings: 100 mg twice a day orally, one week
Procedure: A patient with Crohn's disease was treated using the methods of the present invention. […] Thalidomide was orally administered to them at a dosage of 100 mg twice a day.

[4] = Stability compared with thalidomide; type: physicochemical
[5] = 0.4 mmol/kg intraperitoneal every day from day 3, lungs day 14

O=C1CCC(N2C(=O)c3ccccc3C2=O)C(=O)N1 (stereo not shown) [thalidomide]
density of vessel ingrowth ([1]; 200 mg/kg orally): markedly reduced
onset of inhibition of angiogenesis ([1]; 200 mg/kg orally (FIG. 7)): seen after only two doses
inhibition of the area of vascularized cornea, range in three experiments ([1]; 200 mg/kg orally, begun day 2, day 8 measurements): 30-51%
median inhibition of the area of vascularized cornea ([1]; 200 mg/kg orally): 36%
inhibition of pulmonary metastases (in words) ([2]; 0.4 mmol/kg intraperitoneal every day): minimal inhibition
T/C, ratio of lung metastases of treated vs. control animals [2, 5]: 0.9
inhibition of pulmonary metastases (in words) ([2]; 3.0 mmol/kg intraperitoneal every day): inhibited metastases
gastrointestinal symptoms, including diarrhea and cramping [3]: lessened
skin lesion on the lower leg [3]: resolved

O=C(O)CCC(C(=O)O)N1Cc2ccccc2C1=O (stereo not shown) [EM-138, 2-phthalimidinoglutaric acid]
T/C, ratio of lung metastases of treated vs. control animals [2, 5]: 0.2
reduction of pulmonary metastases [2, 5]: 80%
inhibition of B16-BL6 metastasis ([2]; 0.8 mmol/kg/day): over 90%
inhibition of metastasis after a single administration ([2]; single administration): significantly inhibits metastasis
stability relative to thalidomide [4]: more stable than thalidomide

O=C1CCC(N2Cc3ccccc3C2=O)C(=O)N1 (stereo not shown) [EM-12]
inhibition in rabbit cornea assay ([1]; 100 mg/kg/day): 21%
median inhibition of the area of vascularized cornea ([1]; 200 mg/kg orally): 42%
inhibition in rabbit cornea assay ([1]; 200 mg/kg/day): 43%

O=C1NCCCC1N1C(=O)c2ccccc2S1(=O)=O (stereo not shown) [Supidimide]
activity in the rabbit cornea assay (in words) ([1]; 200 mg/kg orally): no activity
area of corneal neovascularization, % of control ([1]; 200 mg/kg orally, day 8): 107 % of control
